In assay [1] the test system is PG binding sites on human hypernephroma cells. As to the kind of experiment: Time course of specific 3H-PG binding (association, dissociation). The settings on record: 3H-iloprost, 3H-PGE1 each 84 nM, 3H-PGE2 45 nM; stable for at least 80 min.
Assay [2] relates to PGE2-binding sites (3H-PGE2-receptors) on human hypernephroma cells. The assay is described as follows: Saturation binding of 3H-PGE2 to cultured hypernephroma cells (Scatchard analysis). The settings on record: for Bmax, 3H-PGE2 binding, Table III: individual cell lines; for Bmax (binding capacity), 3H-PGE2 binding / Kd: mean of cell lines; for Kd: read-out: Kd (dissociation constant), 3H-PGE2 binding.

Assay [3] has as its system PGE1-binding sites (3H-PGE1-receptors) on human hypernephroma cells. As to the kind of experiment: Saturation binding of 3H-PGE1 to cultured hypernephroma cells (Scatchard analysis). The conditions noted are these: for Bmax, 3H-PGE1 binding, Table II: individual cell lines; for Bmax (binding capacity), 3H-PGE1 binding / Kd: mean of cell lines; for Kd: read-out: Kd (dissociation constant), 3H-PGE1 binding.

Assay [4] has as its target T1, PGI2-binding sites (3H-iloprost receptors) on human hypernephroma cells (Homo sapiens, UniProt P43119).
T1 construct: endogenous in cells; host or cells: primary cultures of human renal cell carcinoma (hypernephroma) cells, one line per patient
As to the kind of experiment: Saturation binding of 3H-iloprost to cultured hypernephroma cells (Scatchard analysis). The settings on record: for Bmax (binding capacity), 3H-iloprost binding: mean of cell lines; for Bmax, 3H-iloprost binding, Table I: individual cell lines.

Where [5] appears, read: ASA-treated group (group 2), ASA 0.5 mg 10-6 cells for 24 h.
[6] abbreviates: ASA-treated group irradiated (group 4).
Where [7] appears, read: control group (group 1), no ASA, no irradiation.
[8] abbreviates: control group irradiated (group 3), 60Co 1.0 Gy min-1 over 10 min, assay about 2 h after.
The mark [9] stands for this setting: ASA-treated group irradiated (group 4), listed as 3H-PGE1.
The mark [10] stands for this setting: control group (group 1), no ASA, no irradiation, listed as 3H-PGE1.

We go through four compounds from article PMC1968618, “Acetylsalicylic acid (ASA) protects the prostaglandin-cAMP-system of human hypernephroma cells against irradiation-induced alterations” (British Journal of Cancer, 1993).

Structures are written as SMILES. “And” between values parts separate entries of the source, which are not always exact repeats. Equal entries are not always repeated. Where two headings read alike, the source gives them in different places.

T1 sequence (P43119 whole entry): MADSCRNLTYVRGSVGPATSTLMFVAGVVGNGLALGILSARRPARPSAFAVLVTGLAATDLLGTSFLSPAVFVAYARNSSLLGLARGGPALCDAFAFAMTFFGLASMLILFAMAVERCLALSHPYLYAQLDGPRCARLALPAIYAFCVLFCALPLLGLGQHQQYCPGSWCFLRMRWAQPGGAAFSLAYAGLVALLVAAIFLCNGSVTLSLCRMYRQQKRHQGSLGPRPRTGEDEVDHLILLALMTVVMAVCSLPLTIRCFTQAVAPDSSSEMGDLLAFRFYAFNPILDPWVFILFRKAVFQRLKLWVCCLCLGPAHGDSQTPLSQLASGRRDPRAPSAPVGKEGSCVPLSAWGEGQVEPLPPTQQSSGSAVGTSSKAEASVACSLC

In the case of `CCCCC[C@H](O)/C=C/[C@H]1[C@H](O)CC(=O)[C@@H]1C/C=C\CCCC(=O)O` [PGE2], the “time to reach binding equilibrium” value in assay [1] is given as not above 30 min. The “Bmax, 3H-PGE2 binding, Table III” value in assay [2] (ASA (group 2), patients 1,3,4,5,6,8,9,10,11 in order, listed as 3H-PGE2) is 650 fmol mg-1 protein and 162 fmol mg-1 protein and 858 fmol mg-1 protein and 780 fmol mg-1 protein and 1104 fmol mg-1 protein and 986 fmol mg-1 protein and 666 fmol mg-1 protein and 324 fmol mg-1 protein and 441 fmol mg-1 protein; in assay [2] (control (group 1), patients 1,3,4,5,6,8,9,10,11 in order, listed as 3H-PGE2), 563 fmol mg-1 protein and 143 fmol mg-1 protein and 478 fmol mg-1 protein and 650 fmol mg-1 protein and 930 fmol mg-1 protein and 438 fmol mg-1 protein and 534 fmol mg-1 protein and 313 fmol mg-1 protein and 398 fmol mg-1 protein; in assay [2] (irradiation, ASA (group 4), patients 3,6,8,9,10,11 in order, listed as 3H-PGE2) it was 181 fmol mg-1 protein and 336 fmol mg-1 protein and 338 fmol mg-1 protein and 466 fmol mg-1 protein and 232 fmol mg-1 protein and 170 fmol mg-1 protein; in assay [2] (irradiation, control (group 3), patients 3,6,8,9,10,11 in order, listed as 3H-PGE2) it was 63 fmol mg-1 protein and 209 fmol mg-1 protein and 218 fmol mg-1 protein and 112 fmol mg-1 protein and 96 fmol mg-1 protein and 189 fmol mg-1 protein. Also, the “Bmax (binding capacity), 3H-PGE2 binding” value in assay [2] (setting [5]) is given as 663 +/- 309 fmol mg-1 protein; in assay [2] (ASA-treated group (group 2), ASA 0.5 mg 10-6 cells for 24 h, listed as 3H-PGE2), 663 fmol mg-1 protein; in assay [2] (setting [6]) it was 287 fmol mg-1 protein; in assay [2] (setting [7]), 494 +/- 221 fmol mg-1 protein; in assay [2] (control group (group 1), no ASA, no irradiation, listed as 3H-PGE2), 494 fmol mg-1 protein; in assay [2] (setting [8]) it was 148 +/- 66 fmol mg-1 protein. The “Bmax (binding capacity), 3H-PGE2 binding” value in assay [2] (control group irradiated (group 3), 60Co 1.0 Gy min-1 over 10 min, assay about 2 h after, listed as 3H-PGE2) was 148 fmol mg-1 protein. In addition, the Kd amounted to 2.2 ± 1.5 nM in assay [2] (setting [5]), 3.5 nM in assay [2] (setting [6]), 4.2 ± 2.5 nM in assay [2] (setting [7]) and 4.7 ± 3.6 nM in assay [2] (setting [8]).
As to `CCCCC[C@H](O)/C=C/[C@H]1[C@H](O)CC(=O)[C@@H]1CCCCCCC(=O)O` [PGE1], in assay [1], the “time to reach binding equilibrium” value is given as not above 20 min. Further, the “Bmax, 3H-PGE1 binding, Table II” value in assay [3] (ASA (group 2), patients 1,3,4,5,6,7,8,9,10,11 in order, listed as 3H-PGE1) is 811 fmol mg-1 protein and 923 fmol mg-1 protein and 1076 fmol mg-1 protein and 1019 fmol mg-1 protein and 1367 fmol mg-1 protein and 897 fmol mg-1 protein and 1773 fmol mg-1 protein and 736 fmol mg-1 protein and 1064 fmol mg-1 protein and 1171 fmol mg-1 protein; in assay [3] (control (group 1), patients 1,3,4,5,6,7,8,9,10,11 in order, listed as 3H-PGE1), 781 fmol mg-1 protein and 372 fmol mg-1 protein and 978 fmol mg-1 protein and 911 fmol mg-1 protein and 694 fmol mg-1 protein and 893 fmol mg-1 protein and 1041 fmol mg-1 protein and 643 fmol mg-1 protein and 555 fmol mg-1 protein and 685 fmol mg-1 protein; in assay [3] (irradiation, ASA (group 4), patients 3,6,7,9,10,11 in order, listed as 3H-PGE1), 679 fmol mg-1 protein and 867 fmol mg-1 protein and 615 fmol mg-1 protein and 268 fmol mg-1 protein and 884 fmol mg-1 protein and 879 fmol mg-1 protein; in assay [3] (irradiation, control (group 3), patients 3,6,7,9,10,11 in order, listed as 3H-PGE1), 267 fmol mg-1 protein and 504 fmol mg-1 protein and 301 fmol mg-1 protein and 137 fmol mg-1 protein and 319 fmol mg-1 protein and 68 fmol mg-1 protein. Further, the “Bmax (binding capacity), 3H-PGE1 binding” value in assay [3] (setting [5]) is recorded as 1084 +/- 303 fmol mg-1 protein; in assay [3] (ASA-treated group (group 2), ASA 0.5 mg 10-6 cells for 24 h, listed as 3H-PGE1), 1084 fmol mg-1 protein; in assay [3] (setting [6]), 699 +/- 240 fmol mg-1 protein; in assay [3] (setting [9]), 699 fmol mg-1 protein; in assay [3] (setting [7]), 755 +/- 206 fmol mg-1 protein; in assay [3] (setting [10]), 755 fmol mg-1 protein. For the same compound, the “Bmax (binding capacity), 3H-PGE1 binding” value is 266 +/- 153 fmol mg-1 protein in assay [3] (setting [8]) and 266 fmol mg-1 protein in assay [3] (control group irradiated (group 3), 60Co 1.0 Gy min-1 over 10 min, assay about 2 h after, listed as 3H-PGE1). For the same compound, the Kd in assay [3] (setting [5]) was 2.8 ± 1.3 nM; in assay [3] (setting [9]), 3 nM; in assay [3] (setting [10]), approximately 4 nM; in assay [3] (setting [7]) it was 3.7 ± 2.7 nM; in assay [3] (setting [8]) it was 5 ± 5 nM.
On to `CCCCC[C@H](O)/C=C/[C@@H]1[C@H]2C/C(=C/CCCC(=O)O)O[C@H]2C[C@H]1O` [PGI2], for which the “Bmax (binding capacity), 3H-iloprost binding” value was 693 +/- 164 fmol mg-1 protein in assay [4] (setting [7]) and 325 +/- 194 fmol mg-1 protein in assay [4] (setting [8]).
In the case of `CC#CCC(C)[C@H](O)/C=C/[C@@H]1[C@H]2C/C(=C/CCCC(=O)O)C[C@H]2C[C@H]1O` (stereo partly shown) [iloprost], the “time to reach binding equilibrium” value in assay [1] is recorded as not above 20 min. The “Bmax, 3H-iloprost binding, Table I” value in assay [4] (ASA (group 2), patients 1,2,3,4,5,6,7,8,9,10,11 in order, listed as 3H-iloprost) was 813 fmol mg-1 protein and 855 fmol mg-1 protein and 987 fmol mg-1 protein and 960 fmol mg-1 protein and 916 fmol mg-1 protein and 1047 fmol mg-1 protein and 2024 fmol mg-1 protein and 1301 fmol mg-1 protein and 442 fmol mg-1 protein and 1023 fmol mg-1 protein and 861 fmol mg-1 protein; in assay [4] (control (group 1), patients 1,2,3,4,5,6,7,8,9,10,11 in order, listed as 3H-iloprost), 741 fmol mg-1 protein and 635 fmol mg-1 protein and 876 fmol mg-1 protein and 732 fmol mg-1 protein and 808 fmol mg-1 protein and 806 fmol mg-1 protein and 649 fmol mg-1 protein and 407 fmol mg-1 protein and 382 fmol mg-1 protein and 829 fmol mg-1 protein and 756 fmol mg-1 protein; in assay [4] (irradiation, ASA (group 4), patients 3,4,6,7,9,10,11 in order, listed as 3H-iloprost), 489 fmol mg-1 protein and 354 fmol mg-1 protein and 867 fmol mg-1 protein and 1551 fmol mg-1 protein and 364 fmol mg-1 protein and 1162 fmol mg-1 protein and 576 fmol mg-1 protein; in assay [4] (irradiation, control (group 3), patients 3,4,6,7,9,10,11 in order, listed as 3H-iloprost), 332 fmol mg-1 protein and 287 fmol mg-1 protein and 432 fmol mg-1 protein and 699 fmol mg-1 protein and 204 fmol mg-1 protein and 203 fmol mg-1 protein and 118 fmol mg-1 protein. The “Bmax (binding capacity), 3H-iloprost binding” value in assay [4] (setting [5]) is reported as 1021 fmol mg-1 protein; in assay [4] (setting [6]) it was 766 +/- 452 fmol mg-1 protein; in assay [4] (ASA-treated group irradiated (group 4), listed as 3H-iloprost), 766 fmol mg-1 protein; in assay [4] (setting [7]), 693 fmol mg-1 protein; in assay [4] (setting [8]), 325 fmol mg-1 protein.
